# Results reported in patent publication US20210283087A1, “METHOD FOR TREATING AND RELIEVING MYOPIA” (China Medical University, priority 2014, published 2021).
# What was measured:
# [1] = system: sclera or retina of guinea pig MFD eye; assay: Immunohistochemistry of guinea pig MFD eyes; type: in vivo
# Experimental: Eyes were collected from atropine-treated and control animals, embedded in paraffin, and cut at a thickness of 20 μm; subsequently, the sections were placed on glass slides. Antigen retrieval was performed by boiling the slides in citrate buffer (pH 6.0); the sections were then stained with antibodies against IL-6, TNF-α, TGF-β, MMP2, c-Fos, NF-κB, and CHRM1 and 3. The EnVision System peroxidase kit (DAKO, Carpentaria, Calif., USA) was used to visualize immunoreactivity.
# We observed a similar increase in inflammatory response in hamsters as we did in a guinea pig model of MFD.
# [2] = system: monocular form deprivation (MFD) Syrian hamster; assay: Refractive power in monocular form deprivation (MFD) hamster model, streak retinoscope; type: in vivo, golden Syrian hamsters; details: for Refractive power, BL: left eye before MFD / Refractive power, BR: right eye before MFD: baseline; for Refractive power, FL: left eye after MFD / Refractive power, FR: right eye after MFD (occluded eye): 21 days; for Refractive error FR-BR: MFD right eye; for Refractive error FL-BL: non-MFD left eye
# Experimental: In this study, a total of 160 golden Syrian hamsters aged 3 weeks, weighing 80 to 90 g, and 20 albino guinea pigs, aged 2 to 3 weeks, were used for experiments. All animals were kept in a 12-hour light/dark cycle. All procedures were approved by the Institutional Animal Care and Use Committee of China Medical University and were conducted in accordance with the guidelines of the Use of Animals in Ophthalmic and Vision Research. Hamsters were raised with a right eyelid fusion for 21 days. Myopia was induced in the guinea pigs by covering the right eye with a cloth attached to the skin at a distance of at least 1 cm from the eye. MFD was induced in the right eye (with the left eye serving as a control) of animals randomly assigned to treatment or control groups (n=10 animals each) receiving daily applications of drug or phosphate-buffered saline (PBS), respectively, to both eyes.
# The RE (i.e., spherical-component RE, which is defined as the mean RE in horizontal and vertical meridians) was measured using a hand-held streak retinoscope. Animals were anesthetized with 10% ether in O2. Ocular refraction was evaluated at the start and end of the experiment. At the end of the study, animals were sacrificed through CO2 asphyxiation according to the guidelines of the Public Health Service, Office of Laboratory Animal Welfare, National Institutes of Health, and American Association of Veterinary Medicine. Eyes were enucleated using a razor blade on an ice plate under a surgical microscope (Topcon, Tokyo, Japan) by cutting perpendicularly to the anterior-posterior axis approximately 1 mm posterior to the ora serrata. The iris and ciliary body of the anterior segment of the eye were separated. Posterior sclera was excised using a 7-mm-diameter trephine. The axial lengths were determined through A-scan ultrasonography (PacScan 300 Plus, NY, USA). The average of 10 unique measurements was used.
# [3] = Atropine 0.125%, listed as atropine
# [4] = Atropine 0.5%, listed as atropine
# [5] = Atropine 1%, listed as atropine
smiles,measurement,setting,value
"CN1[C@@H]2CC[C@H]1C[C@@H](OC(=O)C(CO)c1ccccc1)C2 (stereo partly drawn) [Atropine, atropine]",MFD downregulation of IL-10 level,[1]; atropine,suppressed
same,COL1 expression in sclera or retina of the MFD eye,[1]; atropine compared to PBS,increased
same,"MMP2, TGF-β, and c-Fos expression in sclera or retina of the MFD eye",[1]; atropine compared to PBS,reduced
same,"Refractive power, BL: left eye before MFD",[2]; Atropine 0.125% group,11.85 ± 0.18 D
same,"Refractive power, BR: right eye before MFD",[2]; Atropine 0.125% group,11.9 ± 0.07 D
same,"Refractive power, FL: left eye after MFD",[2]; Atropine 0.125%,8.32 ± 0.16 D
same,"Refractive power, FR: right eye after MFD (occluded eye)",[2]; Atropine 0.125%,6.45 ± 0.1 D
same,"Refractive power, FL: left eye after MFD",[2]; [3],8.32±0.16 D
same,"Refractive power, FR: right eye after MFD (occluded eye)",[2]; [3],6.45±0.1 D
same,Refractive error FR-BR,[2]; Atropine 0.125%,−5.45 ± 0.07 D
same,Refractive error FL-BL,[2]; Atropine 0.125%,−3.53 ± 0.28 D
same,"Refractive power, BL: left eye before MFD",[2]; Atropine 0.5% group,11.69 ± 0.13 D
same,"Refractive power, BR: right eye before MFD",[2]; Atropine 0.5% group,11.61 ± 0.1 D
same,"Refractive power, FL: left eye after MFD",[2]; Atropine 0.5%,8.58 ± 0.12 D
same,"Refractive power, FR: right eye after MFD (occluded eye)",[2]; Atropine 0.5%,6.72 ± 0.11 D
same,"Refractive power, FL: left eye after MFD",[2]; [4],8.58±0.12 D
same,"Refractive power, FR: right eye after MFD (occluded eye)",[2]; [4],6.72±0.11 D
same,Refractive error FR-BR,[2]; Atropine 0.5%,−4.89 ± 0.18 D
same,Refractive error FL-BL,[2]; Atropine 0.5%,−3.11 ± 0.19 D
same,"Refractive power, BL: left eye before MFD",[2]; Atropine 1% group,11.85 ± 0.18 D
same,"Refractive power, BR: right eye before MFD",[2]; Atropine 1% group,11.79 ± 0.15 D
same,"Refractive power, FL: left eye after MFD",[2]; Atropine 1%,10.79 ± 0.16 D
same,"Refractive power, FR: right eye after MFD (occluded eye)",[2]; Atropine 1%,7.06 ± 0.29 D
same,"Refractive power, FL: left eye after MFD",[2]; [5],10.79±0.16 D
same,"Refractive power, FR: right eye after MFD (occluded eye)",[2]; [5],7.06±0.29 D
same,Refractive error FR-BR,[2]; Atropine 1%,−4.74 ± 0.39 D
same,Refractive error FL-BL,[2]; Atropine 1%,−1.06 ± 0.22 D
